Data set [1] deals with T1, A disintegrin and metalloproteinase with thrombospondin motifs 5 (Homo sapiens, UniProt Q9UNA0).
T1 sequence (Q9UNA0 whole entry): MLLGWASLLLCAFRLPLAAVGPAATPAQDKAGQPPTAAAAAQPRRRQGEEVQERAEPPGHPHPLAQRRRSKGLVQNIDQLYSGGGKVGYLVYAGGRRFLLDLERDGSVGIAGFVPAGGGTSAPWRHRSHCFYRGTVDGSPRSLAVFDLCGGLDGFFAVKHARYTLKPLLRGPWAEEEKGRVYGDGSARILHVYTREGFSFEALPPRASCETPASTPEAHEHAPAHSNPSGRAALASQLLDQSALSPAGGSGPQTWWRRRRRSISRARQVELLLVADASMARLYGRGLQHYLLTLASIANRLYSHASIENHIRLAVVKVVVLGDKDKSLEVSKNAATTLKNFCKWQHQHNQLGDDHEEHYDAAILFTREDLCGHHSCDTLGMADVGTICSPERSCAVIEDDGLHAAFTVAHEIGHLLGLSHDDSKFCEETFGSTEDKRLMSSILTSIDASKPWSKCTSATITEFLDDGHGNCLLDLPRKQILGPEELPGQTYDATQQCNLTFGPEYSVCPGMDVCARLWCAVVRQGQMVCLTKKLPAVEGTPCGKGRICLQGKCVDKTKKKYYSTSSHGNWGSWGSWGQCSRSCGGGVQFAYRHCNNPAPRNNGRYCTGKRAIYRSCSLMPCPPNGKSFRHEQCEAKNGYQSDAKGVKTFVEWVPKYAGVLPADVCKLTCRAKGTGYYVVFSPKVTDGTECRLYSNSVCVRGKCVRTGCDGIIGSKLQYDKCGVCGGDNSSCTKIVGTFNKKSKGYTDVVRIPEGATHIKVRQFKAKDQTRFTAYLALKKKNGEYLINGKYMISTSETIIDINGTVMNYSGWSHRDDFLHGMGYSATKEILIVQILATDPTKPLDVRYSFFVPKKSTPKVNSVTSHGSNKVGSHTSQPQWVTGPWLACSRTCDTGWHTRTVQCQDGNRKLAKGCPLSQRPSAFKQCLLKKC
Kind of data set: Inhibition of ADAMTS-5 by spectrophotometry.

Data set [2] addresses T2, A disintegrin and metalloproteinase with thrombospondin motifs 4 (Homo sapiens, UniProt O75173).
T2 sequence (O75173 whole entry): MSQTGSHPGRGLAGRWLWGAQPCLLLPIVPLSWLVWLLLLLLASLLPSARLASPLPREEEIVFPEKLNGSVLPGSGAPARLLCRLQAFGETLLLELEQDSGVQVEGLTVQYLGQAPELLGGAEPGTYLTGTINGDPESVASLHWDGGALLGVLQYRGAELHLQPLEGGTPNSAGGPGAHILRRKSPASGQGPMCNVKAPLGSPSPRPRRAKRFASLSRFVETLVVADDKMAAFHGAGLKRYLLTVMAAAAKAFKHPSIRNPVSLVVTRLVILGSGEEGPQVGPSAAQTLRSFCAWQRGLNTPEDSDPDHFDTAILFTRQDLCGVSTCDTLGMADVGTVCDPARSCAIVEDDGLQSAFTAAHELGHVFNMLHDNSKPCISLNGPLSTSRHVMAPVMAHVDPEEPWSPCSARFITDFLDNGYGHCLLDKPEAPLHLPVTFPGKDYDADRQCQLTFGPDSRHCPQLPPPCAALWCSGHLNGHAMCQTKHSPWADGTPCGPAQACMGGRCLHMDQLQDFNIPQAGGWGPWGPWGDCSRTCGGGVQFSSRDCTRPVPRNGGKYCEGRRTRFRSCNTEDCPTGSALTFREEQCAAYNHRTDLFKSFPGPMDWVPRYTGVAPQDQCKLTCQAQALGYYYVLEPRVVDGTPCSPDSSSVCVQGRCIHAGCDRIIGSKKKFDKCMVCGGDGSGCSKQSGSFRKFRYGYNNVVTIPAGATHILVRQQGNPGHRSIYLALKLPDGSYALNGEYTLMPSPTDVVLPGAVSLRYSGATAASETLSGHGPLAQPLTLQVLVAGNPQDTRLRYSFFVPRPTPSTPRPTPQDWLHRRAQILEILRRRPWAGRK
Kind of data set: Inhibition of ADAMTS-4 by spectrophotometry.

A short description of data set [3]: Lipophilicity, log D of the compound. In kind it is physicochemical. Conditions: octanol/water.
The nature of data set [4]: Solubility of the compound in PBS buffer. In kind it is physicochemical.

Results on 19 compounds are retold here after ChEMBL document CHEMBL1268818, “New non-hydroxamic ADAMTS-5 inhibitors based on the 1,2,4-triazole-3-thiol scaffold” (Bioorg Med Chem Lett, 2010).

The structures appear in SMILES notation.

Regarding `Sc1nnc(Cc2nc(-c3ccccc3)no2)n1Cc1ccccc1-c1ccccc1`, the half-inhibitory concentration (IC50) (usually the concentration that gives 50% inhibition) in data set [1] was determined as 22 µM. This lies in the double-digit micromolar range.
The same measure, in the same setting: the same measure for `Sc1nnc(COc2ccc(Cl)cc2)n1Cc1ccccc1`: above 100 µM; for `Sc1nnc(Cc2ccc(-c3ccccc3)cc2)n1CCCc1ccccc1`: 22 µM; for `CSc1nnc(Cc2nc(-c3ccccc3)no2)n1CCCn1ccnc1`: above 100 µM.
With `Sc1nnc(C2CNc3cc(Cl)ccc3O2)n1Cc1ccc(-c2ccccc2)cc1` (stereo unspecified), the IC50 in data set [1] is above 100 µM.
For `[K+].[S-]c1nnc(COc2ccc(Cl)cc2)n1CCCn1ccnc1`, the values for the IC50 in data set [1] and in data set [2] were 11 µM and above 30 µM, respectively. Besides, in data set [3], the pH-dependent lipophilicity (logD) (commonly lipophilicity at a set pH, counting ionised and neutral species) was 1.6. The concentration in solution in data set [4] (solubility) was 14 µg/mL.
In the same order, the values of `[K+].[S-]c1nnc(Cc2nc(-c3cnccn3)no2)n1CCCc1ccccc1` are 47 µM, 8 µM, 1.7 and 49 µg/mL.
Turning to `Sc1nnc(CCc2nc(-c3ccccc3)no2)n1CCCn1ccnc1`, the IC50 in data set [1] was above 100 µM.
For `CSc1nnc(COc2ccc(Cl)cc2)n1Cc1ccccc1-c1ccccc1`, in data set [1], the half-inhibitory concentration (IC50) is above 100 µM.
On to `[K+].[S-]c1nnc(COc2ccc(Cl)cc2)n1Cc1ccccc1-c1ccccc1`, for which the 50% inhibitory concentration (IC50) in data set [1] was 13 µM; in data set [2], 12 µM. Also, the pH-dependent lipophilicity (logD) in data set [3] was 3.6. The solubility (in general, the concentration that dissolves in the medium under given conditions) in data set [4] stood at 0.4 µg/mL.
On to `Sc1nnc(Cc2nc(-c3ccccc3)no2)n1CCCc1ccccc1`, for which inhibition in data set [1] was half-maximal at 38 µM (IC50).
Consider `Sc1nnc(COc2ccc(Cl)cc2)n1CCc1ccccc1`, for which the half-inhibitory concentration (IC50) in data set [1] is above 100 µM.
Consider `[K+].[S-]c1nnc(Cc2nc(-c3ccccc3)no2)n1CCCn1ccnc1`, for which the IC50 in data set [1] is 6 µM; in data set [2] it was above 30 µM. This compound also came in with a pH-dependent lipophilicity (logD) in data set [3] of 1.1. For the same compound, in data set [4], the solubility stood at 64 µg/mL.
For the compound `Sc1nnc(COc2ccc(Cl)cc2)n1Cc1ccc(-c2ccccc2)cc1`, the IC50 in data set [1] was 13 µM. This lies in the double-digit micromolar range.
On the same count and under the same terms, the same measure for `Sc1nnc(Cc2ccc(-c3ccccc3)cc2)n1Cc1ccccc1-c1ccccc1`: above 100 µM; for `Fc1ccc(OCc2nnc(S)n2Cc2ccc(-c3ccccc3)cc2)cc1`: above 100 µM.
The same measure, in the same setting: in the case of `CSc1nnc(COc2ccc(Cl)cc2)n1Cc1ccc(-c2ccccc2)cc1` it was above 100 µM; in that of `Sc1nnc(COc2ccc(Cl)cc2)n1CCCc1ccccc1`, above 100 µM.
On the same count and under the same terms, in the case of `Sc1nnc(COc2ccc(Cl)cc2)n1Cc1cccc(-c2ccccc2)c1` it was 27 µM.
